“Also recorded” adds a separate entry of the source. Counter-ions that a name gives are not always drawn. Like-named read-outs stand apart in the source and are kept apart here.
Columns and labels:
[1] = rat, in vivo
Procedure: Objective: To estimate Dexmedetomidine levels in rat plasma samples obtained after dosing animals via intravenous and sublingual routes at doses of 0.5, 1, 1.5 and 3 μg/kg.
Blood was collected under mild isoflurane anesthesia from the retro-orbital plexus at 0, 5, 15, 30, 60 and 120 minutes post dosing. Plasma was separated and stored at −80° C. until Dexmedetomidine concentration was analyzed.
Analytical Methods: Samples were analysed by using Agilent 1290 Infinity II HPLC system coupled to AB Sciex Triple Quad instrument (API-5000). Chromatographic separation was done using Agilent Zorbax Eclipse plus C18 column (50*2.1 mm, 1.8 μm) in gradient mode. The mobile phase consisted of 10 mM Ammonium Formate with pH 3.5 (Mobile phase A) and 100% Acetonitrile (Mobile phase B). The column temperature was 40° C. and flow rate was 0.35 mL/min. The MS instrument was operated in the positive mode (ESI+). For analysis, 2 μL of sample was injected into the LC-MS/MS instrument. Auto sampler temperature was 7° C.
WCX SPE 96 well plate was used for sample preparation. 50 μl of plasma sample was used for extraction. Along with study samples, one set of linearity and two sets of quality controls (QC) were also processed.
Sample pretreatment: To 50 μl of plasma, 10 μl of tolbutamide working solution was added (Tolbutamide 250 ng/ml). After mixing, […], of buffer solution (10 mM Ammonium Formate pH 3.5) was added. Contents were vortex mixed and loaded to preconditioned SPE plate.
After placing the cartridges in the negative pressure SPE unit, they were conditioned by passing 200 μl of 100% methanol followed by 200 μl of water. The pretreated plasma samples were then loaded to the pre-conditioned cartridges.
After loading pretreated plasma samples, cartridges were washed with 100 μl of 0.1% ammonia solution. Finally, bound analyte was eluted with 50 μl of 0.1% formic acid in acetonitrile. This step was repeated twice for complete elution. Final eluent volume was 100 μL. To 100 μL of eluent, 50 μL of 10 mM ammonium formate (pH 3.5) was added samples were vortex mixed and transferred to a 96-well HPLC sample plate (Agilent) and submitted for LC-MS/MS analysis. For LC-MS/MS analysis, 2 μL of sample was injected. Calibration standards and QCs were processed the same way as done for study samples.
The calibration curve was fitted by linear regression. The concentrations in the QC and test samples (pg/mL) were obtained from the Analyst software based on the calibration curve. […] 2) The correlation coefficient (r) of the calibration curve must be greater than or equal to 0.99. 3) At least two-thirds (4 out of 6) QC samples must be within ±20% relative error (accuracy)

[2] = tested on: rat ‘resident-intruder’ model of agitation or aggression; assay: Rat resident-intruder model of agitation or aggression; format: in vivo; details: for sublingual vs intravenous route: duration of the behavioral indices of aggression and agitation: doses of 1 and 1.5 μg/kg, student t-test
Source text: The resident-intruder model is an established preclinical model of aggression and agitation, and allows spontaneous and natural expression of both offensive aggression/agitation and defensive behavior in laboratory rodents in a semi natural laboratory setting.
Animals: 12-13 week old male Wistar rats weighing 380-400 g were used as resident males. 7-8 weeks old male rats weighing 280-300 g were used as the “intruder”. Resident rats were housed with female rats for 8 days to establish territoriality. The intruder rats were housed in groups of 3 with other male rats of similar age/body weight. All animals were maintained in a controlled environment with 22±3° C. temperature, 50±20% humidity, a light/dark cycle of 12 hours each and 15-20 fresh air changes per hour and had access to food and water ad-libitum. All animal experiments were conducted in accordance with the guidelines of the Committee for the Purpose of Control and Supervision of Experiments on Animals (CPCSEA), Government of India the Association for Assessment and Accreditation of Laboratory Animal Care international (AAALAC).
Dilutions were prepared fresh every day prior to dosing using 0.9% normal saline from the formulation 4 for the entire study.
Experimental Procedure: Following acclimatization for a period of 3-5 days, each resident male rat was housed with a female rat for 8 days. On day 8, basal aggression in the resident males was tested by exposing them to an “intruder rat” for 10 minutes. […] These animals were then randomized using body weight stratification method. […] Animals were housed with the female rat for an additional day. On day 9, the resident animal was paired with intruder animal of an appropriate bodyweight such that the body weight of the resident was always higher than the intruder. This was to facilitate dominant, aggressive behavior in the resident animals. After randomization, animals were assigned a permanent number. Cages were identified by cage cards indicating the study number, study code, group number, sex, dose, cage number and animal number details.
For sublingual dosing, the rats were held in one hand and using a blunt spatula the tongue was moved to one side of the mouth. […] Diazepam was used as a reference compound and was dosed intraperitoneally. Vehicle controls were treated with 0.9% saline administered sublingually or intravenously.
The behavior of the resident rat was recorded using an overhead video camera for 15 minutes and offline behavioral analysis was done using the Noldus Ethovision XT software. To distinguish the resident rat from the intruder rat in the video recording, the intruder rat was marked with non-toxic paint.
Statistical Analysis: Statistical analysis was performed using validated statistical software (GraphPad Prism 6). Data is represented as Mean±SEM. One-way ANOVA (analysis of variance) followed by “Dunnett's Multiple Comparison Test” at 95% confidence interval was applied for comparison of the relevant groups. p<0.05 was considered significant.

Cc1cccc([C@H](C)c2cnc[nH]2)c1C [Dexmedetomidine hydrochloride, (S)-4-[1-(2,3-Dimethylphenyl)ethyl]-3H-imidazole]
Plasma concentrations between 15 to 30 min [1]: 43±13.5 to 90±12.1
effect of dose on plasma concentrations [1]: dose-related effect on plasma concentrations
plasma concentrations between 15 to 30 min [1]: 27±7.1-114±1.7
effect of dose on plasma concentrations ([1]; iv): dose-dependent effect on plasma concentrations
doses that effectively reduced the behavioral indices of aggression and agitation without majorly impacting the neutral behaviors ([2]; administered sublingually or intravenously, doses used 0.5-3 μg/kg): 1 to 1.5 µg/kg
various indices of agitation and aggression ([2]; conclusion, rat resident intruder model): effectively reduces various indices of agitation and aggression
sublingual vs intravenous route: duration of the behavioral indices of aggression and agitation [2]: correlates with intravenously administered Dexmedetomidine hydrochloride
sublingual vs intravenous route: duration of the behavioral indices of aggression and agitation ([2]; listed as dexmedetomidine hydrochloride): No significant differences (i.e. similar effect via sublingual
latency to attack the intruder rat, significance vs vehicle controls ([2]; intravenous, 3 μg/kg, FIG. 2B): significant compared to vehicle controls
neutral behavior: immobile/quiet time ([2]; intravenous, 3 μg/kg, FIG. 3F): significantly increased the immobile/quiet time
neutral behaviors: grooming and exploration compared to vehicle controls ([2]; intravenous, 0.5-3 μg/kg, except at a dose of 3 μg/kg): did not significantly affect grooming and exploration
indices of aggressive and agitated behaviors ([2]; intravenous, 0.5-3 μg/kg, FIG. 1C, 1D): reduced all the indices of aggressive and agitated behaviors
anogenital sniffing, biting and attacking compared to vehicle controls ([2]; intravenous, doses above 0.5 μg/kg, FIG. 1C, 1D): significant reduction
latency to attack the intruder rat compared to the vehicle control group ([2]; prior treatment, dose related manner, route not stated): significant increase in the latency to attack the intruder rat
neutral behavior: exploration compared to vehicle controls ([2]; sublingual, 1.5 μg/kg & 3 μg/kg, FIGS. 3A and 3B): reduction in exploration
frequency and duration of aggressive and agitated behaviors (anogenital sniffing, chasing, biting, attacking) ([2]; sublingual, 0.5-3 μg/kg, 15 minutes prior to testing, FIG. 1A, 1B): reduced the frequency and duration of these behaviors in a dose related manner; also recorded: dose related reduction
latency to attack the intruder rat ([2]; sublingual, 0.5-3 μg/kg, dose related, FIG. 2A): increase in the latency to attack the intruder rat
neutral behaviors: grooming and exploration compared to vehicle controls ([2]; sublingual, 0.5-3 μg/kg, except exploration at 1.5 and 3 μg/kg, FIGS. 3A and 3B): No significant changes
chasing and attacking compared to vehicle control group ([2]; sublingual, 0.5-3 μg/kg, FIG. 1A, 1B): Significant reduction
neutral behavior: immobile/quiet time compared to vehicle controls ([2]; sublingual, 0.5-3 μg/kg, FIG. 3C): no significant effect
neutral behavior of animals ([2]; sublingually administered): No changes were observed

CN1C(=O)CN=C(c2ccccc2)c2cc(Cl)ccc21 [Diazepam]
indices of aggressive and agitated behaviors ([2]; 3 mg/kg, i.p., FIG. 1A-1D): significant reduction in all the indices of aggressive and agitated behaviors
attacking behavior / latency to attack ([2]; 3 mg/kg, i.p., FIGS. 2A and 2B): complete lack of attacking behavior
frequency and duration of neutral behaviors ([2]; 3 mg/kg, ip): significantly reduced the frequency and duration of all neutral behaviors

Source: patent US11931340B2, “Use of sublingual dexmedetomidine for the treatment of agitation” (BioXcel Therapeutics, Inc., priority 2016, dated 2024)
